From patent publication US4735651A, “Novel phytotoxic and plant growth regulating oligopeptide” (The United States of America as represented by the …, priority 1986, dated 1988)

What was measured:
[1] = tested on: lettuce (Lactuca sativa) cv. Northern Lakes seedlings; test: Root growth bioassay of germinating lettuce seedlings; type: in vivo; settings: lettuce seedling assay (L), 10^-6 M
Procedure: (§1) Applicants' preferred embodiments of this invention comprises the incorporation of structural peptide backbone changes which increase conformational constraint, and vary the orientation of amino acid side chains when constrasted with naturally occurring amino acid sequences. […] Rooth growth inhibition/promotion was measured in germinating lettuce (Lactuca sativa) cv. Northern Lakes and curly cress (Lepidium sativum) seedling assays nominally used for screening herbicidal compounds and in a wheat coleoptile assay used for generally screening biological activity. Only compounds exerting measurable biological activities at 1×10^-6 M in concentration in the lettuce and cress assays and 1×10^-3 M in the wheat coleoptile are claimed.
(§2) Aliquots of tested oligopeptide compounds of the type Formulas I-V were dissolved in ethyl acetate. One milliliter aliquots of the samples were pipetted onto a […] filter disk, dried, and placed in a Petri dish. One mL of distilled water was pipetted onto the filter paper and 15 lettuce seeds were uniformly distributed on the surface of the filter paper and allowed to imbibe in the dark at 20° to 25° C. for 24 h. The samples were subsequently placed in a growth chamber under continuous light at 28° C. for 72 h, and the root lengths were measured.
(§3) During the course of these assays, visual assessment of seedling vigor was made in addition to root length measurements. […] Assessment of phytotoxicity was not confined to assessment of the root, but included any organ of the assay species.

[2] = tested on: curly cress (Lepidium sativum) seedlings; test: Root growth bioassay of germinating curly cress seedlings; type: in vivo; settings: curly cress seedling assay (C), 10^-6 M
Procedure: as §1, §2, §3

[3] = tested on: lettuce and cress seedlings; test: Lettuce and curly cress seedling assays, visual assessment and overall activity (species not split); type: in vivo, Lactuca sativa; Lepidium sativum; design: key to Phytotoxicity: +: designated as phytotoxic if they exhibited either chlorosis and/or necrosis of tissues when compared with untreated control plants; settings: for Root growth inhibitor or promoter activity (in words): 10^-6 M; for Phytotoxicity: visual assessment of chlorosis and/or necrosis, any organ; for Phytotoxic properties observed (in words): visual assessment of seedlings
Procedure: as §1, §2, §3

[4] = tested on: lettuce, potato, cucumber, spinach, radish, corn, tobacco; settings: literature; cited from earlier work
[5] = tested on: susceptible maize hybrids; settings: literature; cited from earlier work

CCN(C(=O)[C@@H](CC(C)C)NC(=O)OC(C)(C)C)/C(=C\c1ccccc1)C(=O)NCC(=O)OC [Compound 7, Boc-D-Leu-N(C2 H5)Δ^z Phe-Gly-OMe]
% Root Growth Inhibitor (inhibition) [1]: 50% | % Root Growth Inhibitor (inhibition) [2]: 80%

COC(=O)CNC(=O)/C(=C/c1ccccc1)N(C)C(=O)[C@H](CC(C)C)NC(=O)OC(C)(C)C [Compound 8, Boc-Leu-N(CH3)Δ^z Phe-Gly-OMe]
% Root Growth Inhibitor (inhibition) [1]: 60% | % Root Growth Inhibitor (inhibition) [2]: 50%

COC(=O)CNC(=O)/C(=C/c1ccccc1)NC(=O)[C@@H](C)NC(=O)OC(C)(C)C [Compound 10, Boc-D-Ala-Δ^z Phe-Gly-OMe]
% Root Growth Inhibitor (inhibition) [1]: 40% | % Root Growth Inhibitor (inhibition) [2]: 20%

COC(=O)CNC(=O)/C(=C/c1ccccc1)N(C)C(=O)[C@@H](NC(=O)OC(C)(C)C)C(C)C [Compound 12, Boc-Val-N(CH3)Δ^z Phe-Gly-OMe]
% Root Growth Inhibitor (inhibition) [2]: 85%

CC(C)C[C@@H]1NC(=O)[C@H](C)N(C)C(=O)CNC(=O)/C(=C/c2ccccc2)N(C)C1=O [Compound 13, cyclo [L-Leucyl-N-methyl-(Z)-dehydrophenylalanyl-glycyl-N-methyl-L-alnyl]]
Root growth inhibitor or promoter activity (in words) [3]: Not active as a inhibitor | Root growth inhibitor or promoter activity (in words) ([3]; listed as tentoxin): none of the plant growth inhibiting or promoting properties | Phytotoxicity [3]: + | Phytotoxic properties observed (in words) [3]: induces chlorosis in lettuce seedlings | Chlorosis induction [4]: induces chlorosis in lettuce, potato, cucumber and spinach but not in radish, corn and some species of tobacco

C[C@@H]1NC(=O)[C@H]2CCCN2C(=O)[C@H](CCCCCC(=O)[C@@H]2CO2)NC(=O)[C@@H](C)NC1=O [HC toxin]
Root growth inhibition [5]: root growth inhibition of susceptible maize hybrids

Boc-N(CH3)-Ala-Leu-N(CH3)Δ^z Phe-Gly-OMe [Compound 5]
Root growth inhibitor or promoter activity (in words) [3]: active | Phytotoxicity [3]: + | Phytotoxic properties observed (in words) [3]: root growth inhibition leading to early mortality
